From publication PMC10846046, “The mechanism of action of auranofin analogs in B. cenocepacia revealed by chemogenomic profiling” (Microbiology Spectrum, 2024)

Legend:
[1] = biological target: T1, TrxB (thioredoxin reductase) (Burkholderia cenocepacia, UniProt B4EBR9); experiment: DTNB reduction, absorbance at […] nm; format: biochemical
T1 construct: full gene in pET24b+, C-terminal 6xHis tag kept, E. coli BL21(DE3); Ni-NTA and size exclusion

[2] = biological target: T2, GOR (glutathione reductase) (Burkholderia cenocepacia, UniProt B4E8M8); experiment: NADPH consumption, absorbance at […] nm; format: biochemical; conditions: GSSG as electron acceptor
T2 construct: full gene in pET-22+, C-terminal 6xHis tag kept, E. coli BL21(DE3)-Gold; purified as TrxB
T2 sequence (B4E8M8 1-451): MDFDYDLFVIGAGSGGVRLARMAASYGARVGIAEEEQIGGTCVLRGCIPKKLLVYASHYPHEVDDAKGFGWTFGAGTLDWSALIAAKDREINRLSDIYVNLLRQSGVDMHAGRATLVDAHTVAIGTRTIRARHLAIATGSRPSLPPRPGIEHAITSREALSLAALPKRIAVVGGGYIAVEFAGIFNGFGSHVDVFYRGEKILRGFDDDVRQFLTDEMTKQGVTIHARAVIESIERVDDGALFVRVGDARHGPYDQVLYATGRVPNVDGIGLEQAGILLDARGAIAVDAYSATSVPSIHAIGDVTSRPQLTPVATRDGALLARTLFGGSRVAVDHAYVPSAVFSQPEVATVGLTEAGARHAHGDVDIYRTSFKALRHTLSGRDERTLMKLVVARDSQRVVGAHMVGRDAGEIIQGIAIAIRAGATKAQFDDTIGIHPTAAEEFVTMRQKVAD

T1 sequence (B4EBR9 1-320): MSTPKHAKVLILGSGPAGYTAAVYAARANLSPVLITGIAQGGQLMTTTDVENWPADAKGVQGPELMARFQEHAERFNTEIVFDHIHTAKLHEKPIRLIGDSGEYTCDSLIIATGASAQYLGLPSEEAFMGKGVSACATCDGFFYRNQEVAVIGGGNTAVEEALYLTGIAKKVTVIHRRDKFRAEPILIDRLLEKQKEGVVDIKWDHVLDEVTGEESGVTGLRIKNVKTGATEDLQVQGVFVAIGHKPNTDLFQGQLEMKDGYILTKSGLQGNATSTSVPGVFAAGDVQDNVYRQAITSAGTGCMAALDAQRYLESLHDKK

Structure (SMILES)	DTNB reduction, absorbance at 412 nm ([1]; NADPH as electron source)	DTNB reduction, absorbance at 412 nm ([1]; DTNB as electron acceptor)	NADPH consumption, absorbance at 340 nm [2]
O=C(O)c1cc(SSc2ccc([N+](=O)[O-])c(C(=O)O)c2)ccc1[N+](=O)[O-] [DTNB]	in the presence of substrate DTNB is reduced to TNB, with NADPH as a source		
NC(=O)C1=CN([C@@H]2O[C@H](COP(=O)(O)OP(=O)(O)OC[C@H]3O[C@@H](n4cnc5c(N)ncnc54)[C@H](OP(=O)(O)O)[C@@H]3O)[C@@H](O)[C@H]2O)C=CC1 [NADPH]		in the presence of substrate DTNB is reduced to TNB, with NADPH as a source	oxidized glutathione is reduced to reduced glutathione, with NADPH as a source of electrons
